SMILES strings stand for the structures. Converted amounts (≈) assume the structure as drawn. Bounds are passed on as bounds.

For one data set, the target named is T1, human PAFR (Homo sapiens, UniProt P25105).
T1 construct: expressed in transfected cells; host or cells: HEK293
Briefly: cellular HTRF IP1 endpoint assay: inhibition of PAFR activation by PAF C-16 ligand. Type of data set: cell-based. As to conditions: HEK293 cells overexpressing human PAFR; PAF ligand 11 nM. As to the method:
The ability of compounds of formula (I.0) to inhibit the activation of the PAF receptor (PAFR) by the PAF C-16 ligand (PAF) is determined using the following cellular HTRF IP1 assay (IP1 Gq assay kit from Cisbio, Cat. no.: 62IP1APEJ) in assay buffer (1×HBSS, 20 mM Hepes, pH 7.4, 50 mM LiCl and containing 0.1% (w/v) BSA):
HEK293 cells overexpressing human PAFR (produced in-house) are seeded into a Poly-D-Lysine coated 384 well white cell culture microtiter assay plate with lid (15.000 cells per well). Subsequently, the plates are incubated over night at 37° C./5% CO2. On the next day, cells are being washed and subsequently, various concentrations of the test compounds (compounds in 100% DMSO; final concentration of DMSO in wells is 1%) are added to the assay plate via Echo 555 acoustic liquid handler. Plates are then incubated with lid for 90 minutes at 37° C./5% CO2. Thereafter, PAF ligand (Cayman Chemical Company, Item no.: 60900) is added at a final concentration of 11 nM. Plates are then incubated with lid for 60 minutes at 37° C./5% CO2. Then, 5 μl per well of Anti-IP1-Anti body-Cryptate solution and 5 μL per well of IP1-d2 solution are added to all wells of the plate and the plate is incubated for another 60 minutes light protected at room temperature. The emissions at 620 nm and 665 nm (Excitation wavelength: 320 nm) are measured using an Envision Reader (PerkinElmer).

Data set [1] can be described thus: aqueous solubility in buffer (from DMSO stock, 24 h shaking, LC-UV). As to conditions: pH 2.2, aqueous buffer, kinetic from dmso stock.
Protocol: The aqueous solubility of the test compound is determined by comparing the amount dissolved in buffer to the amount in an ACN/water (1/1) solution. Starting from a 10 mM DMSO stock solution aliquots are diluted with ACN/water (1/1) or buffer, respectively. After 24 h of shaking, the solutions are filtrated and analyzed by LC-UV. The amount dissolved in buffer is compared to the amount in the ACN solution.
Solubility will usually be measured from 0.001 to 0.125 mg/mL at a DMSO concentration of 2.5%. If more than 90% of the compound is dissolved in buffer, the value is marked with “>”.

T1 sequence (P25105 whole entry): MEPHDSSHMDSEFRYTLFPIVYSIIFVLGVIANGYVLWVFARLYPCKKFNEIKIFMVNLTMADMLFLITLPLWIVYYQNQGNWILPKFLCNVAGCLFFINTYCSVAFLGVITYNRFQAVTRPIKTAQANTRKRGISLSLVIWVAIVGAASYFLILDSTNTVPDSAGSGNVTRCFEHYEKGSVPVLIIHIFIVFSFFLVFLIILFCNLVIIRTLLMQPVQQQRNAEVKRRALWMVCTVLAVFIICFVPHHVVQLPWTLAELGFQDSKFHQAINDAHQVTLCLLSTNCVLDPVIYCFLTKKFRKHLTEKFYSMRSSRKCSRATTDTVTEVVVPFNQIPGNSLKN

One may read the IC50 as the concentration at which inhibition is half-maximal. What is called solubility is how much of the substance goes into solution per volume. A higher solubility goes with much dissolved substance. Regarding `Cc1nnc2n1-c1sc3c(c1C(c1ccccc1Cl)NC2)C[C@H](C(=O)NC(C)(C)CO)C3` (stereo partly drawn) [Example 65, (13S)-9-(2-Chlorophenyl)-N-(1-hydroxy-2-methylpropan-2-yl)-3-methyl-16-thia-2,4,5,8-tetraazatetracyclo-[8.6.0.0^2,6.0^11,15]hexadeca-1(10),3,5,11(15)-tetraene-13-carboxamide], the half-maximal inhibitory concentration (IC50) against human PAFR came to 11 nM. In addition, in data set [1], the solubility at 24 h is > 147 µg/mL.
For the compound `Cc1nnc2n1-c1sc3c(c1C(c1cc(F)cc(F)c1)NC2)CC(C(=O)N1CCOCC1)C3` (centres unmarked) [Example 58, 9-(3,5-Difluorophenyl)-3-methyl-13-(morpholine-4-carbonyl)-16-thia-2,4,5,8-tetraazatetracyclo[8.6.0.0^2,6.0^11,15]-hexadeca-1(10),3,5,11(15)-tetraene], the solubility at 24 h in data set [1] was > 118 µg/mL.
For `Cc1nnc2n1-c1sc3c(c1[C@@H](c1ccccc1)NC2)C[C@H](C(=O)N1CCOCC1)C3` [Example 78], on human PAFR, the IC50 is > 1000 nM.
As to `O=C(C1Cc2sc3c(c2C1)C(c1ccccc1Cl)NCc1nnc(C2CC2)n1-3)N1CCOCC1` (centres unmarked) [Example 81, 9-(2-Chlorophenyl)-3-cyclopropyl-13-(morpholine-4-carbonyl)-16-thia-2,4,5,8-tetraazatetracyclo[8.6.0.0^2,6.0^11,15]hexadeca-1(10),3,5,11(15)-tetraene], the IC50 against human PAFR is 224 nM. In data set [1], this compound had a solubility at 24 h of 68 µg/mL (≈ 137 µM).
For `Cc1ncc2n1CCN(C(=O)[C@@H]1Cc3sc4c(c3C1)[C@H](c1ccccc1Cl)NCc1nnc(C)n1-4)C2` [Example 29] the same measures were 69 nM and > 110 µg/mL.
`Cc1nnc2n1-c1sc3c(c1C(c1ccccc1)NC2)CC(C(=O)N1CCOCC1)C3` (centres unmarked) [Example 74] gave a 50% inhibitory concentration (IC50) at human PAFR of 252 nM. Besides, the solubility at 24 h in data set [1] is > 104 µg/mL.
For `Cc1nnc2n1-c1sc3c(c1[C@H](c1ccccc1Cl)NC2)C[C@H](C(=O)NCc1ccc(C(F)(F)F)cn1)C3` [Example 38] the same measures were 1.4 nM and 108 µg/mL (≈ 193 µM).
For `CCc1nnc2n1-c1sc3c(c1C(c1ccccc1Cl)NC2)CC(C(=O)N1CCOCC1)C3` (centres unmarked) [Example 67] the same measures were 73 nM and > 121 µg/mL.
For `CCc1ccccc1C1NCc2nnc(C)n2-c2sc3c(c21)CC(C(=O)N1CCOCC1)C3` (racemic) [Example 53, 9-(2-Ethylphenyl)-3-methyl-13-(morpholine-4-carbonyl)-16-thia-2,4,5,8-tetraazatetracyclo[8.6.0.0^2,6.0^11,15]hexadeca-1(10),3,5,11(15)-tetraene] the same measures were 297 nM and 116 µg/mL (≈ 250 µM).
In the case of `CCCN(CCC)C(=O)[C@@H]1Cc2sc3c(c2C1)[C@H](c1ccccc1Cl)NCc1nnc(C)n1-3` [Example 73, (9R,13S)-9-(2-chlorophenyl)-3-methyl-N,N-dipropyl-16-thia-2,4,5,8-tetraazatetracyclo[8.6.0.0^2,6.0^11,15]hexadeca-1(10),3,5,11(15)-tetraene-13-carboxamide], the IC50 against human PAFR stood at 0.7 nM. Further, the solubility at 24 h in data set [1] was > 110 µg/mL.
Take `Cc1ccccc1[C@H]1NCc2nnc(C)n2-c2sc3c(c21)C[C@H](C(=O)N1CCOCC1)C3` [Example 63, (9R,13S)-3-Methyl-9-(2-methylphenyl)-13-(morpholine-4-carbonyl)-16-thia-2,4,5,8-tetraazatetracyclo[8.6.0.0^2,6.0^11,15]-hexadeca-1(10),3,5,11(15)-tetraene]: the solubility at 24 h in data set [1] is > 110 µg/mL.
In turn, `CCC12CC(NC(=O)[C@@H]3Cc4sc5c(c4C3)[C@H](c3ccccc3Cl)NCc3nnc(C)n3-5)(C1)C2` [Example 50] showed an IC50 against human PAFR of 0.5 nM. The solubility at 24 h in data set [1] is 98 µg/mL (≈ 198 µM).
As for `Cc1nnc2n1-c1sc3c(c1[C@@H](c1ccccc1)NC2)C[C@@H](C(=O)N1CCOCC1)C3` [Example 75], the half-maximal inhibitory concentration (IC50) against human PAFR is > 568 nM.
For the compound `Cc1nnc2n1-c1sc3c(c1[C@H](c1ccccc1Cl)NC2)C[C@H](C(=O)NCc1nccs1)C3` [Example 40], at human PAFR, the IC50 came to 83 nM. Further, the solubility at 24 h in data set [1] is > 111 µg/mL.
For `Cc1nnc2n1-c1sc3c(c1[C@H](c1ccccc1Cl)NC2)C[C@H](C(=O)NCc1cnc(C(F)(F)F)nc1)C3` [Example 46] the same measures were 6.3 nM and 112 µg/mL (≈ 200 µM).
Regarding `Cc1nnc2n1-c1sc3c(c1C(c1ccccc1CO)NC2)CC(C(=O)N1CCOCC1)C3` (racemic) [Example 60, {2-[3-Methyl-13-(morpholine-4-carbonyl)-16-thia-2,4,5,8-tetraazatetracyclo[8.6.0.0^2,6.0^11,15]hexadeca-1(10),3,5,11(15)-tetraen-9-yl]phenyl}methanol], the concentration for half-maximal inhibition (IC50) against human PAFR is > 322 nM.
`Cc1nnc2n1-c1sc3c(c1[C@H](c1ccccc1Cl)NC2)C[C@H](C(=O)NCC1CC1)C3` [Example 15] came in with an IC50 at human PAFR of 1.7 nM. Also, the solubility at 24 h in data set [1] is > 113 µg/mL.
For `Cc1nnc2n1-c1sc3c(c1[C@H](c1ccccc1Cl)NC2)C[C@H](C(=O)NCc1ccc(OC(F)F)nc1)C3` [Example 12] the same measures were 1.9 nM and > 129 µg/mL.
For `Cc1nnc2n1-c1sc3c(c1C(c1ccccc1Br)NC2)CC(C(=O)N1CCOCC1)C3` (racemic) [Example 57, 9-(2-Bromophenyl)-3-methyl-13-(morpholine-4-carbonyl)-16-thia-2,4,5,8-tetraazatetracyclo[8.6.0.0^2,6.0^11,15]hexadeca-1(10),3,5,11(15)-tetraene] the same measures were 161 nM and > 128 µg/mL.
For `Cc1nnc2n1-c1sc3c(c1C(c1ccccc1C1CC1)NC2)CC(C(=O)N1CCOCC1)C3` (racemic) [Example 59, 9-(2-Cyclopropylphenyl)-3-methyl-13-(morpholine-4-carbonyl)-16-thia-2,4,5,8-tetraazatetracyclo[8.6.0.0^2,6.0^11,15]-hexadeca-1(10),3,5,11(15)-tetraene] the same measures were > 322 nM and > 119 µg/mL.
In turn, `Cc1nnc2n1-c1sc3c(c1[C@@H](c1ccccc1Cl)NC2)C[C@H](C(=O)NCCOC(F)(F)F)C3` [Example 8] had an IC50 against human PAFR of 55 nM. Also, the solubility at 24 h in data set [1] is > 121 µg/mL.
For `Cc1nnc2n1-c1sc3c(c1C(c1ccccc1F)NC2)CC(C(=O)N1CCOCC1)C3` (racemic) [Example 55, 9-(2-Fluorophenyl)-3-methyl-13-(morpholine-4-carbonyl)-16-thia-2,4,5,8-tetraazatetracyclo[8.6.0.0^2,6.0^11,15]hexadeca-1(10),3,5,11(15)-tetraene] the same measures were 240 nM and > 112 µg/mL.
For `CCCc1nnc2n1-c1sc3c(c1[C@@H](c1ccccc1Cl)NC2)CC(C(=O)N1CCOCC1)C3` (stereo in doubt) [Example 80, 9-(2-Chlorophenyl)-13-(morpholine-4-carbonyl)-3-propyl-16-thia-2,4,5,8-tetraazatetracyclo[8.6.0.0^2,6.0^11,15]hexadeca-1(10),3,5,11(15)-tetraene] the same measures were 110 nM and > 104 µg/mL.
For `COc1ccc(Cl)c(C2NCc3nnc(C)n3-c3sc4c(c32)CC(C(=O)N2CCOCC2)C4)c1` (centres unmarked) [Example 62, 9-(2-Chloro-5-methoxyphenyl)-3-methyl-13-(morpholine-4-carbonyl)-16-thia-2,4,5,8-tetraazatetracyclo-[8.6.0.0^2,6.0^11,15]hexadeca-1(10),3,5,11(15)-tetraene] the same measures were 94 nM and > 118 µg/mL.
Regarding `COc1ccccc1C1NCc2nnc(C)n2-c2sc3c(c21)CC(C(=O)N1CCOCC1)C3` (centres unmarked) [Example 54, 9-(2-Methoxyphenyl)-3-methyl-13-(morpholine-4-carbonyl)-16-thia-2,4,5,8-tetraazatetracyclo[8.6.0.0^2,6.0^11,15]-hexadeca-1(10),3,5,11(15)-tetraene], the concentration in solution in data set [1] (solubility at 24 h) was 49 µg/mL (≈ 105 µM).
Consider `CCc1nnc2n1-c1sc3c(c1[C@H](c1ccccc1Cl)NC2)C[C@@H](C(=O)N1CCOCC1)C3` [Example 70], for which the concentration for half-maximal inhibition (IC50) on human PAFR is > 1000 nM.
On to `Cc1nnc2n1-c1sc3c(c1C(c1ccc(Cl)cc1)NC2)CC(C(=O)N1CCOCC1)C3` (centres unmarked) [Example 52, 9-(4-Chlorophenyl)-3-methyl-13-(morpholine-4-carbonyl)-16-thia-2,4,5,8-tetraazatetracyclo[8.6.0.0^2,6.0^11,15]hexadeca-1(10),3,5,11(15)-tetraene], for which the 50% inhibitory concentration (IC50) at human PAFR turned out to be 283 nM.
Still for that read-out and setting: the same measure for `Cc1nnc2n1-c1sc3c(c1[C@H](c1ccccc1)NC2)C[C@H](C(=O)N1CCOCC1)C3` [Example 76]: 140 nM.
Same read-out and setting: the same measure for `CCc1nnc2n1-c1sc3c(c1[C@@H](c1ccccc1Cl)NC2)C[C@@H](C(=O)N1CCOCC1)C3` [Example 71]: > 999 nM.
For `Cc1nnc2n1-c1sc3c(c1C(c1ccccc1C(F)(F)F)NC2)CC(C(=O)N1CCOCC1)C3` (centres unmarked) [Example 56, 3-Methyl-13-(morpholine-4-carbonyl)-9-[2-(trifluoromethyl)phenyl]-16-thia-2,4,5,8-tetraazatetracyclo[8.6.0.0^2,6.0^11,15]-hexadeca-1(10),3,5,11(15)-tetraene], in data set [1], the solubility at 24 h is > 126 µg/mL.
In the case of `Cc1nnc2n1-c1sc3c(c1[C@H](c1ccccc1)NC2)C[C@@H](C(=O)N1CCOCC1)C3` [Example 77], the IC50 on human PAFR is > 1000 nM.
